In ChEMBL document CHEMBL3045835, “Comparative study of conventional and microwave-assisted synthesis of some Schiff bases and their potential as antimicrobial agents” (2012):
≈ marks a conversion by molar mass, not a printed value.

Key:
Assay type in all cases: functional
[1] = system: Pseudomonas aeruginosa; assay: Antibacterial activity against Pseudomonas aeruginosa MTCC 424 at 500 ug/ml after 18 hr by cup-plate method; settings: MTCC 424, 18 h, read-out: DIZ
[2] = system: Pseudomonas aeruginosa; assay: Antibacterial activity against Pseudomonas aeruginosa MTCC 424 at 200 ug/ml after 18 hr by cup-plate method; settings: MTCC 424, 18 h, read-out: DIZ
[3] = system: Pseudomonas aeruginosa; assay: Antibacterial activity against Pseudomonas aeruginosa MTCC 424 at 100 ug/ml after 18 hr by cup-plate method; settings: MTCC 424, 18 h, read-out: DIZ
[4] = system: Micrococcus luteus; assay: Antibacterial activity against Micrococcus luteus MTCC 1538 at 1500 ug/ml after 18 hr by cup-plate method; settings: MTCC 1538, 18 h, read-out: DIZ
[5] = system: Micrococcus luteus; assay: Antibacterial activity against Micrococcus luteus MTCC 1538 at 1000 ug/ml after 18 hr by cup-plate method; settings: MTCC 1538, 18 h, read-out: DIZ
[6] = system: Micrococcus luteus; assay: Antibacterial activity against Micrococcus luteus MTCC 1538 at 500 ug/ml after 18 hr by cup-plate method; settings: MTCC 1538, 18 h, read-out: DIZ
[7] = system: Micrococcus luteus; assay: Antibacterial activity against Micrococcus luteus MTCC 1538 at 200 ug/ml after 18 hr by cup-plate method; settings: MTCC 1538, 18 h, read-out: DIZ
[8] = system: Micrococcus luteus; assay: Antibacterial activity against Micrococcus luteus MTCC 1538 at 100 ug/ml after 18 hr by cup-plate method; settings: MTCC 1538, 18 h, read-out: DIZ
[9] = system: Bacillus pumilus; assay: Antibacterial activity against Bacillus pumilus MTCC 1456 at 1500 ug/ml after 18 hr by cup-plate method; settings: MTCC 1456, 18 h, read-out: DIZ
[10] = system: Bacillus pumilus; assay: Antibacterial activity against Bacillus pumilus MTCC 1456 at 1000 ug/ml after 18 hr by cup-plate method; settings: MTCC 1456, 18 h, read-out: DIZ
[11] = system: Bacillus pumilus; assay: Antibacterial activity against Bacillus pumilus MTCC 1456 at 500 ug/ml after 18 hr by cup-plate method; settings: MTCC 1456, 18 h, read-out: DIZ
[12] = system: Bacillus pumilus; assay: Antibacterial activity against Bacillus pumilus MTCC 1456 at 200 ug/ml after 18 hr by cup-plate method; settings: MTCC 1456, 18 h, read-out: DIZ
[13] = system: Bacillus pumilus; assay: Antibacterial activity against Bacillus pumilus MTCC 1456 at 100 ug/ml after 18 hr by cup-plate method; settings: MTCC 1456, 18 h, read-out: DIZ
[14] = system: Bacillus subtilis; assay: Antibacterial activity against Bacillus subtilis MTCC 441 at 1000 ug/ml after 18 hr by cup plate method; settings: MTCC 441, 18 h, read-out: DIZ
[15] = system: Bacillus subtilis; assay: Antibacterial activity against Bacillus subtilis MTCC 441 at 1500 ug/ml after 18 hr by cup plate method; settings: MTCC 441, 18 h, read-out: DIZ
[16] = system: Bacillus subtilis; assay: Antibacterial activity against Bacillus subtilis MTCC 441 at 500 ug/ml after 18 hr by cup plate method; settings: MTCC 441, 18 h, read-out: DIZ
[17] = system: Bacillus subtilis; assay: Antibacterial activity against Bacillus subtilis MTCC 441 at 200 ug/ml after 18 hr by cup plate method; settings: MTCC 441, 18 h, read-out: DIZ
[18] = system: Bacillus subtilis; assay: Antibacterial activity against Bacillus subtilis MTCC 441 at 100 ug/ml after 18 hr by cup plate method; settings: MTCC 441, 18 h, read-out: DIZ
[19] = system: Staphylococcus aureus; assay: Antibacterial activity against Staphylococcus aureus MTCC 1430 at 1500 ug/ml after 18 hr by cup-plate method; settings: MTCC 1430, 18 h, read-out: DIZ
[20] = system: Staphylococcus aureus; assay: Antibacterial activity against Staphylococcus aureus MTCC 1430 at 1000 ug/ml after 18 hr by cup-plate method; settings: MTCC 1430, 18 h, read-out: DIZ
[21] = system: Staphylococcus aureus; assay: Antibacterial activity against Staphylococcus aureus MTCC 1430 at 500 ug/ml after 18 hr by cup-plate method; settings: MTCC 1430, 18 h, read-out: DIZ
[22] = system: Staphylococcus aureus; assay: Antibacterial activity against Staphylococcus aureus MTCC 1430 at 200 ug/ml after 18 hr by cup-plate method; settings: MTCC 1430, 18 h, read-out: DIZ
[23] = system: Staphylococcus aureus; assay: Antibacterial activity against Staphylococcus aureus MTCC 1430 at 100 ug/ml after 18 hr by cup-plate method; settings: MTCC 1430, 18 h, read-out: DIZ
[24] = system: Penicillium chrysogenum; assay: Antifungal activity against Penicillium chrysogenum MTCC 161 after 24 hr by broth dilution method; settings: MTCC 161, 24 h
[25] = system: Aspergillus niger; assay: Antifungal activity against Aspergillus niger MTCC 2546 after 24 hr by broth dilution method; settings: MTCC 2546, 24 h
[26] = system: Escherichia coli; assay: Antibacterial activity against Escherichia coli MTCC 1573 after 24 hr by broth dilution method; settings: MTCC 1573, 24 h
[27] = system: Pseudomonas fluorescens; assay: Antibacterial activity against Pseudomonas fluorescens MTCC 2421 after 24 hr by broth dilution method; settings: MTCC 2421, 24 h

MIC [24]: 200 µg/mL (≈ 846 µM)
MIC [25]: 300 µg/mL (≈ 1270 µM)
MIC [26]: 300 µg/mL (≈ 1270 µM)
MIC [27]: 300 µg/mL (≈ 1270 µM)
Compound: Cc1cc(/N=C/c2cccc3ccccc23)no1
zone of inhibition at 500 µg/mL [1]: 17 mm
zone of inhibition at 200 µg/mL [2]: 16 mm
zone of inhibition at 100 µg/mL [3]: 14 mm
zone of inhibition at 1500 µg/mL [4]: 24 mm
zone of inhibition at 1000 µg/mL [5]: 22 mm
zone of inhibition at 500 µg/mL [6]: 20 mm
zone of inhibition at 200 µg/mL [7]: 18 mm
zone of inhibition at 100 µg/mL [8]: 16 mm
zone of inhibition at 1500 µg/mL [9]: 18 mm
zone of inhibition at 1000 µg/mL [10]: 17 mm
zone of inhibition at 500 µg/mL [11]: 16 mm
zone of inhibition at 200 µg/mL [12]: 15 mm
zone of inhibition at 100 µg/mL [13]: 13 mm
zone of inhibition at 1000 µg/mL [14]: 19 mm
zone of inhibition at 1500 µg/mL [15]: 20 mm
zone of inhibition at 500 µg/mL [16]: 17 mm
zone of inhibition at 200 µg/mL [17]: 16 mm
zone of inhibition at 100 µg/mL [18]: 13 mm
zone of inhibition at 1500 µg/mL [19]: 20 mm
zone of inhibition at 1000 µg/mL [20]: 16 mm
zone of inhibition at 500 µg/mL [21]: 15 mm
zone of inhibition at 200 µg/mL [22]: 14 mm
zone of inhibition at 100 µg/mL [23]: 13 mm
